Reference: ChEMBL document CHEMBL4706499, “PTG-0861: A novel HDAC6-selective inhibitor as a therapeutic strategy in acute myeloid leukaemia” (Eur J Med Chem, 2020)

Assays:
[1] = biological target: T1, Protein deacetylase HDAC6 (Homo sapiens, UniProt Q9UBN7); test: Inhibition of recombinant full length human HDAC6 expressed in SF9 baculovirus using FAM- labelled acetylated peptide as substrate measured by Electrophoretic mobility shift assay
T1 sequence (Q9UBN7 whole entry): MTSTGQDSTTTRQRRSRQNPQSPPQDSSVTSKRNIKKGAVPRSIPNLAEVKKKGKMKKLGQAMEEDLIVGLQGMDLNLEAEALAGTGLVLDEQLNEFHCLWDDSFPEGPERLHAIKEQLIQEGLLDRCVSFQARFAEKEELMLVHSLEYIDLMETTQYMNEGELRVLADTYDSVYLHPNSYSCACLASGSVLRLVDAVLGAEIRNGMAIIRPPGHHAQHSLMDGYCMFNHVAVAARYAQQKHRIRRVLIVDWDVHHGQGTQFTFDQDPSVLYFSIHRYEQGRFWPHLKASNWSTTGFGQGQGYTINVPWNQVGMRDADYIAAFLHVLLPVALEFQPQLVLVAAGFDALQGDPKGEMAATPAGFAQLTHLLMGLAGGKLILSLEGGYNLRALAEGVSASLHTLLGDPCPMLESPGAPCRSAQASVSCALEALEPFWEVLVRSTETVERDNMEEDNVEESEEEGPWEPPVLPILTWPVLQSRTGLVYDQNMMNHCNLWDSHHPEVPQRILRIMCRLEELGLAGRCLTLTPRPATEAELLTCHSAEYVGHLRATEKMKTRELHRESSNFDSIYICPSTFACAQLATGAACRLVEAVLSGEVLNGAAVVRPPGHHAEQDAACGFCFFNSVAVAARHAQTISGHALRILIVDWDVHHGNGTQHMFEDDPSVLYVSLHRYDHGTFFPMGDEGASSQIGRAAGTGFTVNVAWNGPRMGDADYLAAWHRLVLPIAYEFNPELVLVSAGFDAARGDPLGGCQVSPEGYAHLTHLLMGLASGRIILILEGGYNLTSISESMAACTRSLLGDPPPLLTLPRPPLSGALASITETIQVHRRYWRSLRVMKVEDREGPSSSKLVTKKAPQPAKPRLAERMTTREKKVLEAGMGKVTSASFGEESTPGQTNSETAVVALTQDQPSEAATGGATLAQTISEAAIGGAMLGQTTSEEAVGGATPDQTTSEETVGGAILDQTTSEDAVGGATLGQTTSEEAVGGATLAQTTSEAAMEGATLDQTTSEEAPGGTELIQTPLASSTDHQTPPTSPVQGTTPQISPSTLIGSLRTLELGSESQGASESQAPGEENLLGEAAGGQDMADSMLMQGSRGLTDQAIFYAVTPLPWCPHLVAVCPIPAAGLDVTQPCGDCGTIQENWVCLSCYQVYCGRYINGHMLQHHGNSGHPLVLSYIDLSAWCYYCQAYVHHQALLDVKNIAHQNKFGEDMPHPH

Histone deacetylase 8 = biological target: T2, Histone deacetylase 8 (Homo sapiens, UniProt Q9BY41); test: Inhibition of recombinant full length human HDAC8 expressed in SF9 baculovirus using FAM- labelled acetylated peptide as substrate measured by Electrophoretic mobility shift assay
T2 sequence (Q9BY41 whole entry): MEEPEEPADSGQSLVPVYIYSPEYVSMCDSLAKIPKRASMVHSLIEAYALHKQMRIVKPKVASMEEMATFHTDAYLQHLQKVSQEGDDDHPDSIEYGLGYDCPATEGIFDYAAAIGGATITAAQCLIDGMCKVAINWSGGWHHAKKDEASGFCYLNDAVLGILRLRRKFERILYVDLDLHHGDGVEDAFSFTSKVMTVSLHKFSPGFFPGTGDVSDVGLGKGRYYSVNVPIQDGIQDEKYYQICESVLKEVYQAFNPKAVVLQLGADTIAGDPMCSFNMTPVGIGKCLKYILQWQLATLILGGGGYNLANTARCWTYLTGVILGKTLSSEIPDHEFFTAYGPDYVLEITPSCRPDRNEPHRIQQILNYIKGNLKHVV

Histone deacetylase 11 = biological target: T3, Histone deacetylase 11 (Homo sapiens, UniProt Q96DB2); test: Inhibition of recombinant full length human HDAC11 expressed in SF9 baculovirus using FAM- labelled acetylated peptide as substrate measured by Electrophoretic mobility shift assay
T3 sequence (Q96DB2 whole entry): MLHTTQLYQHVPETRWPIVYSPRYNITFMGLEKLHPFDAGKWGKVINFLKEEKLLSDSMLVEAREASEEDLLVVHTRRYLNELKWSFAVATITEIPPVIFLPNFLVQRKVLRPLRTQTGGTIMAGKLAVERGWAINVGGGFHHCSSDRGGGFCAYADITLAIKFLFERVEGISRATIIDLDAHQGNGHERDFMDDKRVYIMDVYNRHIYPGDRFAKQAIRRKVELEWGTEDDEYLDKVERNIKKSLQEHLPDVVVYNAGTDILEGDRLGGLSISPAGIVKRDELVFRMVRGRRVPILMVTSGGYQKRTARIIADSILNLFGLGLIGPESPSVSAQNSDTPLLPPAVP

MV4-11 = test: Cytotoxicity against human MV4-11 cells measured after 72 hrs by spectrophotometer method; assay type: functional, cell-based; conditions: MV4-11, 72 h
[2] = Cytotoxicity against human MRC9 cells measured after 72 hrs by spectrophotometer method; assay type: cell-based; conditions: MRC9, 72 h
Histone deacetylase 3 = Histone deacetylase 3 (Homo sapiens, UniProt O15379); test: Inhibition of recombinant full length human HDAC3 expressed in SF9 baculovirus using FAM- labelled acetylated peptide as substrate measured by Electrophoretic mobility shift assay
Chain of Histone deacetylase 3 (O15379 whole entry): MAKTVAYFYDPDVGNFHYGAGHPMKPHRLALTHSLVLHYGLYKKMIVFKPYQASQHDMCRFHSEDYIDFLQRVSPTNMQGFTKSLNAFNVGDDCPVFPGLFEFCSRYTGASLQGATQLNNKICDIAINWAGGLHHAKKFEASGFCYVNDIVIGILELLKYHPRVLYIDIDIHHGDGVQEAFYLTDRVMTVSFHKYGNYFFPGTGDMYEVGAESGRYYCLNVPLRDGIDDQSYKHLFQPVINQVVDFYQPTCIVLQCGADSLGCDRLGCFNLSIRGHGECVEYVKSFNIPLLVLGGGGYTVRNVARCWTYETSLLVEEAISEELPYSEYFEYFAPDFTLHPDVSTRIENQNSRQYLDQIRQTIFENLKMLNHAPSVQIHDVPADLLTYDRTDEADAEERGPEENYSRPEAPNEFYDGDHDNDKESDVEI

[3] = Selectivity ratio of IC50 for full length recombinant human HDAC3 to IC50 for full length recombinant human HDAC6

Row | SMILES | IC50 [1] | IC50 (Histone deacetylase 8) | IC50 (Histone deacetylase 11) | IC50 (MV4-11) | IC50 [2] | IC50 (Histone deacetylase 3) | Ratio IC50 [3]
1 | CC(C)(C)c1ccc(NS(=O)(=O)c2ccc(C(=O)NO)cc2)cc1 | 17.5 nM | 9.4 nM | 223 nM | 7160 nM | > 50000 nM | 34.4 nM | –
2 | CC(C)(C)c1ccc(S(=O)(=O)Nc2ccc(C(=O)NO)cc2)cc1 | 2.01 nM | 13.3 nM | 44.2 nM | 1180 nM | > 25000 nM | 2.25 nM | 1.12
3 | O=C(NO)c1ccc(NC(=O)c2c(F)c(F)c(F)c(F)c2F)cc1 | 1.46 nM | 14 nM | 700 nM | 1510 nM | > 25000 nM | 3.13 nM | 2.14
4 | CC(C)(C)c1ccc(S(=O)(=O)NCc2ccc(C(=O)NO)cc2)cc1 | 41.9 nM | 622 nM | > 1000 nM | 5030 nM | > 25000 nM | 297 nM | 7.09
5 | CC(C)(C)c1ccc(CC(=O)Nc2ccc(C(=O)NO)cc2)cc1 | 13 nM | 74.3 nM | > 1000 nM | 340 nM | > 15000 nM | 3.74 nM | –
6 | O=C(NO)c1ccc(NC(=O)c2ccc(F)cc2)cc1 | 6.77 nM | 567 nM | > 1000 nM | 3640 nM | > 25000 nM | 45.4 nM | 6.7
7 | O=C(NO)c1ccc(NC(=O)c2ccc(C3CCCCC3)cc2)cc1 | 26.6 nM | 208 nM | 411 nM | 530 nM | > 25000 nM | 159 nM | 5.98
8 | O=C(NO)c1ccc(NC(=O)c2ccc(N3CCOCC3)cc2)cc1 | 96.6 nM | 921 nM | > 1000 nM | 17100 nM | > 50000 nM | > 1000 nM | > 9.53
9 | CC(C)N(Cc1ccc(C(=O)NO)cc1)C(=O)c1c(F)c(F)c(F)c(F)c1F | 14 nM | 876 nM | > 1000 nM | 16400 nM | > 15000 nM | > 1000 nM | 62.6
10 | CC(C)(C)c1cccc(C(=O)Nc2ccc(C(=O)NO)cc2)c1 | – | – | – | 3880 nM | > 25000 nM | – | –
11 | CC(C)(C)c1ccc(NC(=O)c2ccc(C(=O)NO)cc2)cc1 | 10.4 nM | 43.9 nM | 447 nM | 1440 nM | > 25000 nM | 10.9 nM | 1.05
12 | CN(Cc1ccc(C(=O)NO)cc1)C(=O)c1c(F)c(F)c(F)c(F)c1F | 17.3 nM | > 1000 nM | > 1000 nM | 3730 nM | > 25000 nM | 740 nM | 42.8
13 | CC(C)(C)c1ccc(C(=O)NCc2ccc(C(=O)NO)cc2)cc1 | 32.4 nM | 162 nM | > 1000 nM | 570 nM | > 25000 nM | 15.2 nM | –
14 | O=C(/C=C/c1ccc(CNC(=O)c2c(F)c(F)c(F)c(F)c2F)cc1)NO | 14 nM | 283 nM | > 1000 nM | 320 nM | > 25000 nM | 13 nM | –
15 | O=C(NO)c1ccc(NC(=O)c2ccc(C3CC3)cc2)cc1 | 2.81 nM | 20.4 nM | 704 nM | 1080 nM | > 25000 nM | 11.9 nM | 4.23
16 | O=C(NO)c1ccc(NC(=O)c2ccc(C(F)(F)F)cc2)cc1 | 22.6 nM | 220 nM | > 1000 nM | 880 nM | > 5000 nM | 243 nM | 9.73
17 | CCN(C(=O)c1ccc(C(C)(C)C)cc1)c1ccc(C(=O)NO)cc1 | > 1000 nM | 281 nM | > 1000 nM | 8230 nM | > 25000 nM | > 1000 nM | –
18 | O=C(NO)c1ccc(CN(C(=O)c2c(F)c(F)c(F)c(F)c2F)C2CC2)cc1 | 18.4 nM | 971 nM | > 1000 nM | 7370 nM | > 50000 nM | > 1000 nM | > 52.8
19 | O=C(/C=C/c1ccc(CN(C(=O)c2c(F)c(F)c(F)c(F)c2F)C2CC2)cc1)NO | 12 nM | 420 nM | > 1000 nM | 760 nM | > 25000 nM | 70 nM | 5.83
20 | CC(C)(C)c1ccc(C(=O)N(Cc2ccc(C(=O)NO)cc2)C2CC2)cc1 | 20.9 nM | 269 nM | > 1000 nM | 8570 nM | > 25000 nM | 323 nM | 12.9
21 | Cc1ccc(C(=O)Nc2ccc(C(=O)NO)cc2)cc1 | 1.6 nM | 21.6 nM | > 1000 nM | 2400 nM | > 25000 nM | 10.9 nM | 6.81
